# Experimental data published in PMC5464344, “Analgesic and anti‐inflammatory properties of novel, selective, and potent EP4 receptor antagonists” (Pharmacology Research & Perspectives, 2017).
# Columns and labels:
# [1] = biological target: T1, TP (TXA2/PGH2) (h); antagonist effect (Homo sapiens, UniProt P21731); experiment: Off-target activity (CEREP), TP antagonist effect; assay type: biochemical; conditions: 10 μmol/L; obtained at CEREP (Blanco et al. 2016c)
# T1 construct: CEREP (contract laboratory that ran the assay)
# T1 sequence (P21731 1-343): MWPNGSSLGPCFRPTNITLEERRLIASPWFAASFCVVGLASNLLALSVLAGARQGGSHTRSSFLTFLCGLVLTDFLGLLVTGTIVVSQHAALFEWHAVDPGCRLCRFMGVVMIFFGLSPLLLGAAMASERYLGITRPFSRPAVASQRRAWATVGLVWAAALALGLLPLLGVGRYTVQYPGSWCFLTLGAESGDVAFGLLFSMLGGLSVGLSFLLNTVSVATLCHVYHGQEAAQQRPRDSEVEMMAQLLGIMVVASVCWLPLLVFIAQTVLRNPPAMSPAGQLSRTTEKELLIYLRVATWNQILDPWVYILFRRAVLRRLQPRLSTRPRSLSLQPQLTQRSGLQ
# Excerpt: (§1) The off‐target activity related to prostaglandin pathway (Table 2) were obtained at CEREP (Blanco et al. 2016c).
# [2] = tested on: male Lewis rats, MIA injected knee; experiment: Rat MIA model of pain (incapacitance testing); assay type: in vivo; conditions: 1 h post dose, P < 0.05 by Dunnett's test
# Method: For the monoiodoacetate (MIA) and adjuvant induced arthritis (AIA) studies, male Lewis rats (Envigo, Indianapolis, IN) of approximately 8 weeks of age at the time of disease induction were used. For collagen induced arthritis studies (CIA) female Lewis rats (Charles River) weighing 150–170 g were used. Rats were housed in groups of 2 or 3 per cage and maintained in a constant temperature, and on a 12 h light/12 h dark cycle. Animals had free access to food and water at all times except during data collection.
# The right knees of rats were injected with 0.3 mg of MIA (Sigma Aldrich) in 50 μL of saline and the left knees with 50 μL of saline on day zero. These intra‐articular injections are directly into the synovial cavity of the flexed knee joint through the patella ligament. Twelve days later, the rats were randomized into groups of five rats using body weight and the Block Randomized Allocation Tool. […] Reference compound CJ‐042,794 was also tested in the MIA model on day 14 post MIA injection at doses of 1, 3, 10, 30, and 50 mg/kg with the vehicle being 10% Solutol in PEG400 (n = 4 rats per group). The nonsteroidal anti‐inflammatory drug (NSAID) diclofenac was included in all studies at a dose of 5 mg/kg as a positive control. […] Pain was measured using incapacitance testing. […]
# [3] = biological target: T2, DP1(h); agonist radioligand (Homo sapiens, UniProt Q13258); experiment: Off-target activity (CEREP), DP1; assay type: binding; conditions: 10 μmol/L; obtained at CEREP (Blanco et al. 2016c)
# T2 construct: CEREP (contract laboratory that ran the assay)
# T2 sequence (Q13258 1-359): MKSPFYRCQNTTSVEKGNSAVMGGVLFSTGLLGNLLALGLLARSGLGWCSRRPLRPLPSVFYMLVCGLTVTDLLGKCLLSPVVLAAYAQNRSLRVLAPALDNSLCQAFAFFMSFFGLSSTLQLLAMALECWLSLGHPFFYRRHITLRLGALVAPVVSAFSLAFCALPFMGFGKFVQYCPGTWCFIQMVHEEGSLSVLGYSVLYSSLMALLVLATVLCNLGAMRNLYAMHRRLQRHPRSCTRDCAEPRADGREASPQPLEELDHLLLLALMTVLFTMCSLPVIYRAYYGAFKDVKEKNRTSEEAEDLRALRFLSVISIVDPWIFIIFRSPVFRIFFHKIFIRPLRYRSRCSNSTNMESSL
# Excerpt: as §1
# human EP3 receptor = biological target: T3, human EP3 receptor (Homo sapiens, UniProt P43115); experiment: [3H]-PGE2 receptor binding assay, EP3 membranes; conditions: HEK293 membranes, geometric mean ± SEM, read-out: hEP1-4 receptor binding EP3 Ki
# T3 sequence (P43115 1-359 limits assumed): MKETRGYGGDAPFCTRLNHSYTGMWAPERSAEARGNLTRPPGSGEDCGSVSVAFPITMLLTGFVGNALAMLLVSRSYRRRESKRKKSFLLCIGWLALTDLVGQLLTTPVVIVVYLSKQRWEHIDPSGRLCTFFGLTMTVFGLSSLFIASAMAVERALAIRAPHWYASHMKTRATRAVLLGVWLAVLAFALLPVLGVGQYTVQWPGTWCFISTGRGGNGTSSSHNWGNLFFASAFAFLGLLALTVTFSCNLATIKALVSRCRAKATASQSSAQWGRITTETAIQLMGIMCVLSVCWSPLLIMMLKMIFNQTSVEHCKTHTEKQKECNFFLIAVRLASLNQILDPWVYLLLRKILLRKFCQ
# Method: (§2) Receptor binding assays were done using membrane preparations of HEK 293 cells transfected with various prostanoid receptors using previously published procedure (Nakao et al. 2007). EP1 and EP4 membranes were prepared from recombinant HEK293 cells stably expressing human EPl receptor (GenBank Accession # AY275470, Clone ID PER0100000, UMR cDNA Resource Center, Rolla, MO) or human EP4 receptor. EP2 and EP3 membranes were prepared from HEK293 cells transiently transfected with human EP2 receptor (GenBank Accession # AY275471, Clone ID PER0200000, UMR cDNA Resource Center, Rolla, MO) or human EP3 receptor (GenBank Accession # AY429108, Clone ID PER3VI0000, UMR cDNA Resource Center, Rolla, MO) plasmids. Frozen cell pellets were homogenized in homogenization buffer (10 mmol/L Tris‐HCl, pH7.4, 250 mmol/L sucrose, 1 mmol/L EDTA, 0.3 mmol/L indomethacin and protease inhibitor cocktail with EDTA (Roche Molecular Biochemicals, catalog # 1691498)) using a Teflon/glass homogenizer. After a low speed centrifugation (200g for 15 min at 4°C) the supernatant was subjected to high speed centrifugation (30,000g for 60 min at 4°C). Membrane protein preparation was aliquoted and quick frozen on dry ice prior to storage at −80°C. […] Compounds were tested in a 96‐well format using a three‐fold dilution series to generate 10‐point curves. […] The binding reaction was performed in 200 μL MES buffer (10 mmol/L MES, pH 6.0, 10 mmol/L MgCl2, and l mmol/L EDTA) using polystyrene 96‐well plates. […] The membranes were harvested by filtration (TomTek harvester), washed four times with cold buffer (10 mmol/L MES, pH 6.0, 10 mmol/L MgCl2), dried in a 60°C oven, and the radioactivity was quantified as counts per min (CPM) using a TopCount detector. […] Data were analyzed using a 4‐parameter nonlinear logistic equation. K i Conversion from IC50 Values (K i = […] where [L] is the ligand concentration). Results are expressed as the geometric mean ± standard deviation or geometric mean ± standard error as noted.
# Human EP4 = Human EP4 (Homo sapiens, UniProt P35408); experiment: [3H]-PGE2 receptor binding assay, EP4 membranes; parameters: expressed in transfected cells; membrane preparation; conditions: HEK293 membranes, geometric mean ± SEM, read-out: hEP1-4 receptor binding EP4 Ki
# Method: as §2
# Sequence of Human EP4 (P35408 whole entry): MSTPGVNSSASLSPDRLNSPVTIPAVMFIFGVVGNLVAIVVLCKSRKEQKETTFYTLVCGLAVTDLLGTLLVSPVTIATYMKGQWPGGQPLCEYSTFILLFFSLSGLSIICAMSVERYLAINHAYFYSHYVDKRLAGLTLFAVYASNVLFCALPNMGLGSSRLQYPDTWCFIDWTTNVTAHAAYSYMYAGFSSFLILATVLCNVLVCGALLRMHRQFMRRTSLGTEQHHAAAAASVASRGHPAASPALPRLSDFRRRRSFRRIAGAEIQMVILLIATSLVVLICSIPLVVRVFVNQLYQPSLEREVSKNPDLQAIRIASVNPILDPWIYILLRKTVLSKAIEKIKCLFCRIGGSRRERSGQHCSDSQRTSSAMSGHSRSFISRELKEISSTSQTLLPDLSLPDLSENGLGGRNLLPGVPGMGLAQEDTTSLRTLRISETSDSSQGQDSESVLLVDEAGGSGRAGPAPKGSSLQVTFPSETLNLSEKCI
structure (smiles),measurement,setting,value
C[C@H](NC(=O)[C@H]1CCCCN1CCOc1ccccc1)c1ccc(C(=O)O)cc1 [Compound 2],% Inh TP (TXA2/PGH2) (h); antagonist effect,[1],−12.00%
same,"pain efficacy (normalization of hind paw weight distribution, incapacitance testing)","[2]; 1, 3, and 10 mg/kg oral",effective
same,% Inh DP1(h); agonist radioligand,[3],−4.00%
same,Ki,human EP3 receptor,> 14000 nM
Cc1ccc(N2CCC(O)CC2)nc1C(=O)Nc1c(C)cc(C(=O)O)cc1C [Compound 1],% Inh TP (TXA2/PGH2) (h); antagonist effect,[1],−12.00%
same,Ki,Human EP4,58 ± 12 nM
same,% Inh DP1(h); agonist radioligand,[3],0.00%
Cc1ccc(-c2cccc(CO)c2)nc1C(=O)Nc1c(C)ccc(C(=O)O)c1C [Compound 3],Ki,Human EP4,2.07 ± 1.31 nM
same,Ki,human EP3 receptor,> 14000 nM
"C[C@H](NC(=O)c1cc(Cl)ccc1Oc1ccc(F)cc1)c1ccc(C(=O)O)cc1 [CJ‐042,794, reference compound]",pain efficacy (incapacitance testing) versus vehicle,"[2]; 3, 10, 30, and 50 mg/kg oral",significantly different from vehicle
same,Ki,Human EP4,12.6 ± 7.36 nM
same,Ki,human EP3 receptor,> 15500 nM
